Assay results as given in US8163746B2, “Azolecarboxamide derivative” (Astellas Pharma Inc., priority 2006, dated 2012).

Key:
[1] = tested on: CPA-induced urinary frequency in rat; test: Effects on cyclophosphamide (CPA)-induced urinary frequency in rat; type: in vivo; details: Wistar female rat, 2 days after CPA, value before administration = 100%
Description: 3. Effects of the Compound on the Cyclophosphamide (CPA)-Induced Urinary Frequency in Rat
CPA (150 mg/5 ml/kg) was intraperitoneally administered to a Wistar female rat (Charles river laboratories), and after two days, the experiment was carried out. It was forced to be orally administered with distilled water (30 ml/kg), and then placed in a metabolic cage, and the voided urine weight and the urination frequency were continuously measured for 1 hour. The compound (0.5% methylcellulose solution) 3 or 10 mg/5 ml/kg, or a vehicle (0.5% methylcellulose solution) 5 ml/kg was orally administered, and after 5 to 30 min, the urinary functions were measured after loading water in the same manner as described above. A total voided urine weight was divided by the total urination frequency to determine an effective bladder capacity. With the value before administration of the compound being set at 100%, a rate of change in the effective bladder capacity caused by administration of the compound was determined.
In this test, at 2 days after CPA treatment, the effective bladder capacity was decreased (about 0.5 ml), indicating urinary frequency condition.

[2] = biological target: T1, trkA receptor (Rattus norvegicus, UniProt P35739); test: Inhibitory activity on enhanced vascular permeability caused by NGF in rat (Evans blue); type: in vivo; details: Wistar female rat, 10 mg/kg oral, NGF intracutaneous 60 min after administration, vehicle group set at 100%
T1 construct: from tissue; host or cells: Wistar female rat (SLC), skin of the back, in vivo
Description: 2. Evaluation of the Inhibitory Activity of the Compound on Enhanced Vascular Permeability Caused by NGF in Rat
The in vivo trkA receptor inhibitory activity of the compound was examined. A Wistar female rat (SLC) were forced to be orally administered with the compound (0.5% methylcellulose solution) 10 mg/3 ml/kg or a vehicle (0.5% methylcellulose solution) 3 ml/kg. Under ether anesthesia performed at 60 min after administration, physiological saline or 1 ug/ml NGF (NGF, mouse derived 2.5S, Alomone) was intracutaneously administered to the back at 50 ul/site, and then immediately a 1% Evans blue solution (dissolved in physiological saline) was administered through caudal vein at 3 ml/kg. At a time point of 10 min after the administration, the skin on the back was taken, and shaken in formamide for 16 hours. After shaking, an absorption of Evans blue extracted with formamide was measured by an absorption meter (wavelength: 620 nm), and the concentration was determined by a calibration curve method. A value obtained by subtracting the concentration of Evans blue at a site administered with physiological saline from the concentration of Evans blue at a site administered with NGF has a function dependent on NGF, and an inhibitory rate of the compound group was determined with a group administered with vehicle being set at 100%. In this test, it was confirmed that the compound of the present invention has an excellent inhibitory activity on enhanced vascular permeability caused by NGF in rat.

[3] = biological target: T2, Human nerve growth factor receptor (Homo sapiens, UniProt P04629); test: Receptor inhibitory activity using cells expressing a nerve growth factor receptor (NGF-dependent intracellular Ca increase, FLIPR); type: cell-based; details: HEK293 cells stably expressing Human nerve growth factor receptor; NGF about 100 to 150 ng/ml; Ca concentration change
T2 construct: expressed in transfected cells
Description: 1. Experiment to Measure a Receptor Inhibitory Activity Using Cells Expressing a Nerve Growth Factor Receptor
The nerve growth factor receptor inhibitory activity was measured by using the increase in a ligand-dependent calcium concentration in cells as an index. HEK293 cells (American Type Culture Collection) that stably expressed Human nerve growth factor receptor were dispensed onto a 96-well poly-D-lysine-coated plate (Product Name: Biocoat, PDL96W black/clear, by Nippon Becton Dickinson) to a 2×10^4 cells/well at the day before the experiment, and incubated overnight at 37° C. under 5% carbon dioxide (CO2) in a culture medium containing 10% fetal bovine serum (FBS) (Product Name: DMEM, Invitrogen Corporation). The culture medium was replaced by a washing solution: a Hank's balanced salt solution)(HBSS), containing a 1.5 μM loading buffer (fluorescent indicator (Product Name: Fluo-4-AM, […].)), 20 mM 2-[4-(2-hydroxyethyl)-1-piperazinyl]ethanesulfonic acid (HEPES)-sodium hydroxide (NaOH), 2.5 mM Probenecid, 0.1% bovine serum albumin (BSA), and left to stand at room temperature for 3 hours, and the cells were washed using a plate washer (Product Name: ELx405, BIO-TEK instrument Corporation) in which a washing solution had been set up. The compound that had been preliminarily dissolved and diluted in a washing solution was added thereto, and set up in a system for measuring a calcium (Ca) concentration in a cell (Product Name: FLIPR, Molecular Devices Corporation). After 5 minutes, a nerve growth factor (NGF, mouse derived 2.5S, Alomone) corresponding on 80% stimulation of a maximum response was added (to a final concentration of about 100 to 150 ng/ml) to measure the change in Ca concentrations in cells. A difference between a maximum value and a minimum value in Ca concentrations in cells was determined, and kept as measurement data. With a response upon addition of NGF being set at 0%, and a response upon addition of a buffer being set at 100%, the concentration causing 50% inhibition was determined as an IC50 value. In the table, Ex represents Compound No. of Examples as described later. From the results of this test, it was confirmed that the compound of the present invention has a nerve growth factor receptor inhibitory activity.

[4] = tested on: acetic acid-induced painful behaviors in rat; test: Effects on acetic acid-induced painful behaviors (writhing) in rat; type: in vivo; details: Wistar male rat; 10 mg/kg oral 5 min before 1% acetic acid i.p.; writhing frequency 10-20 min; vehicle group = 100%
Description: 4. Effects of the Compound on Acetic Acid-Induced Painful Behaviors in Rat
1% Acetic acid (99% distilled water) was intraperitoneally administered to a Wistar male rat (Charles river laboratories), and the frequency of pain behavior (writhing) between 10 min and 20 min after administration was measured. The compound (10 mg/5 ml/kg) or a vehicle (0.5% methylcellulose solution) was orally administered 5 mins before the administration of 1% acetic acid. With the frequency of the group administered with the vehicle being set at 100%, the inhibition rate of the writhing behavior frequency by the compound administration was determined.

[5] = dose 10 mg/kg oral, evaluation 30-90 min after administration
[6] = dose 3 mg/kg oral, evaluation 5-65 min after administration

T2 sequence (P04629 33-796): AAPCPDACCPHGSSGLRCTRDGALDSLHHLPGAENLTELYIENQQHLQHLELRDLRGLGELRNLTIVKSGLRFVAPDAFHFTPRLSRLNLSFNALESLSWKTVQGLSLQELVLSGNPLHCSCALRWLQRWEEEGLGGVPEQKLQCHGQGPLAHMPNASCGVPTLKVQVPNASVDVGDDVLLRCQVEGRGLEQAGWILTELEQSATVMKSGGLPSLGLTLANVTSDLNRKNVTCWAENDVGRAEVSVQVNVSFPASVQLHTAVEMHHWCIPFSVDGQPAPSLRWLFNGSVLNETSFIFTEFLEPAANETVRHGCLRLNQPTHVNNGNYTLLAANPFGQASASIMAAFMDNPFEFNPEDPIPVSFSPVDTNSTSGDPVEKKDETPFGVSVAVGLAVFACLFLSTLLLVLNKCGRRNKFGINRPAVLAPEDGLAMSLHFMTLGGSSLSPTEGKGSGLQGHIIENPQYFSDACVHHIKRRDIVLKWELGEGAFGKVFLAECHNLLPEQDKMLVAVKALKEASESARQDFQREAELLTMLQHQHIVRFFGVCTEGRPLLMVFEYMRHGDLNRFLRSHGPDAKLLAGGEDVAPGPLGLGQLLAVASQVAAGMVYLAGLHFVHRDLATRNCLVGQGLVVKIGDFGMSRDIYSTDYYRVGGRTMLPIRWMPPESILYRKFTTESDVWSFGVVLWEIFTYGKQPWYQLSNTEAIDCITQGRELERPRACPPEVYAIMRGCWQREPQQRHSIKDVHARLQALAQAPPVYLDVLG
T1 sequence (P35739 33-799): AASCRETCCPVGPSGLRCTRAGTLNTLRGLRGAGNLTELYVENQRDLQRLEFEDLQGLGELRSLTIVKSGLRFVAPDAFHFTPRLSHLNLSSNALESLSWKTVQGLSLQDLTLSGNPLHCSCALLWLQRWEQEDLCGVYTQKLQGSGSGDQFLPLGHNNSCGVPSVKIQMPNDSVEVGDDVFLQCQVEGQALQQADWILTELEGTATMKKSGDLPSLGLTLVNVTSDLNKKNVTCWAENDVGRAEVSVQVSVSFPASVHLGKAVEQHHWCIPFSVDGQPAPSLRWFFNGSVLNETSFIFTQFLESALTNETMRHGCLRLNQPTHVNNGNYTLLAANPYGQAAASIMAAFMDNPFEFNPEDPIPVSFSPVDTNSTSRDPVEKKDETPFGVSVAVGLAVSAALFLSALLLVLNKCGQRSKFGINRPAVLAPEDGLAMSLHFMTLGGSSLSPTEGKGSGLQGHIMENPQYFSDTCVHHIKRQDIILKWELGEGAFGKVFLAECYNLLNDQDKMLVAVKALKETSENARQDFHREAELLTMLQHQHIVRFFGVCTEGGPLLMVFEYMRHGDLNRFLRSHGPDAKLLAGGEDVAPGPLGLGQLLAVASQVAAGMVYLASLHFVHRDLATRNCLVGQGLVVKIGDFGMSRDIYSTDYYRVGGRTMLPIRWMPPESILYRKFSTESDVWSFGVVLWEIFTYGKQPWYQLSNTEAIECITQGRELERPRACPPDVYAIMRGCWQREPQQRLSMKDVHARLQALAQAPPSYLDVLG

SMILES	Change rate of effective bladder capacity [1, 5]	Inhibition rate [2]	IC50 [3]	Inhibition rate [4]	Change rate of effective bladder capacity [1, 6]
COCCN(C)c1nc(C(=O)Nc2ccccc2N2CCN(CC(N)=O)CC2)cs1.Cl [Example 356, N-{2-[4-(2-amino-2-oxoethyl)-piperazin-1-yl]phenyl}-2-[(2-methoxyethyl)(methyl)amino]-1,3-thiazole-4-carboxamide hydrochloride]	180%	97%	8.8 nM		
NC(=O)C1CCN(c2ccccc2NC(=O)c2csc(-c3ccoc3)n2)CC1 [Example 662, 1-[2-({[2-(3-furyl)-1,3-thiazol-4-yl]carbonyl}amino)phenyl]-4-piperidine carboxamide]			2.4 nM		
COCCN(C)c1nc(C(=O)Nc2cccnc2N2CCC(C(N)=O)CC2)cs1 [Example 380]	152%	88%	9.5 nM	44%	
Cl.NC(=O)C1CCN(c2ncccc2NC(=O)c2coc(N3CCOCC3)n2)CC1 [Example 501, 1-(3-{[(2-morpholin-4-yl-1,3-oxazol-4-yl)carbonyl]amino}pyridin-2-yl)piperidine-4-carboxamide hydrochloride]	157%	85%	12 nM	55%	
NC(=O)CN1CCN(c2ccc(F)cc2NC(=O)c2coc(C3CCOCC3)n2)CC1 [Example 942]		95%	4.6 nM		153%
NC(=O)CN1CCN(c2ccccc2NC(=O)c2csc(N3CCOCC3)n2)CC1 [Example 151]	147%	93%	11 nM	53%	
COCCN(C)c1nc(C(=O)Nc2cccnc2N2CCN(CC(N)=O)CC2)cs1 [Example 382]		92%	11 nM	38%	134%
NC(=O)CN1CCN(c2c(F)cccc2NC(=O)c2csc(N3CCC(O)CC3)n2)CC1 [Example 311]		90%	2.6 nM		
